The results in this text go back to patent publication US20240091365A1, “BETA-GLUCURONIDE LINKER-PAYLOADS, PROTEIN CONJUGATES THEREOF, AND METHODS THEREOF” (priority 2022, published 2024).

One series addresses E. coli β-Glucuronidase (Escherichia coli, UniProt P05804). The experiment in a line: β-Glucuronidase reactivity: enzymatic cleavage of linker-payloads monitored by LCMS. The class given is in vitro ADME. The following applies: 10 μM linker-payload, 300 U/mL enzyme, 50 mM sodium acetate, 37° C., release of (207) from (107), (201) from (108). As for the experimental part: The susceptibility of the β-glucuronide linker-payloads to enzymatic cleavage was evaluated by treatment of the (107) and (108) linker-payloads with β-glucuronidase, as shown in FIG. 3A-FIG. 3D. This assay allowed the confirmation of the expected release of Exatecan (207) and 3-amino hemiasterlin (201). The cleavage product was monitored using LCMS. 945 μL of 50 mM sodium acetate, 5 μL of 2 mM (107)/(108) linker-payloads stock (final conc.10 μM) and 50 μL of 6 KU/mL E. coli β-Glucuronidase in 0.2% NaCl (final conc.300 U/mL) were mixed and incubated at 37° C. Aliquots (50 μL) were taken at t=0 h, 0.5 h, 1 h, 2 h, 4 h and 24 h, treated with 3 volumes of quench solution (methanol:acetonitrile 5:95 v/v) and analyzed by LCMS.

Another series concerns MC38-hFolRα cells. The experiment in a line: In vitro cell killing (cell proliferation assay, Cell Titer-Glo) on MC38-hFolRα cells. It is filed as cell-based. To be noted: for cell killing (in words): MC38-hFolRα cells (FolRα positive). An excerpt:
(§1) Anti-FolRα antibody conjugated to hemiasterlin with a cathepsin cleavable ValCit linker was used as control. FolRα negative A549 and MC38 cells were purchased from ATCC (American Type Culture Collection, Manassas, VA, USA), and FolRα positive Igrov1 cells were licensed from NCI (National Cancer Institute at Frederick, Maryland). MC38-hFolRα cells were generated at Sutro by stable transfection of a vector expressing human FolRa. All the cell lines were maintained in DMEM:F12 (1:1), high glucose (Corning, Corning, NY) supplemented with 10% heat-inactivated fetal bovine serum (Thermo Scientific, Grand Island, NY), 2 mM glutamax (Thermo Scientific, Grand Island, NY), and 1× Penicillin/Streptomycin (Corning, Corning, NY). Cytotoxicity effects of the ADCs were measured with a cell proliferation assay. A total of 625 cells for Igrov1 and A549, and 312 cells for MC38-hFolRα in a volume of 25 microliters were seeded in a 384-well flat bottom white polystyrene plate the day before the actual assay starts. ADCs were formulated at 2× starting concentration in cell culture medium and filtered through MultiScreen HTS 96-Well Filter Plates (Millipore, Billerica, Massachusetts). Filter sterilized samples were serial diluted (1:3) under sterile conditions and added onto cells in triplicate. Plates were cultured at 37° C. in a CO2 incubator for 120 hours for Igrov1 and A549, and 72 hours for MC38-hFolRα cells. For cell viability measurement, 30 microliters of Cell Titer-Glo® reagent (Promega Corp, Madison, WI) was added into each well, and plates were processed as per product instructions. Relative luminescence was measured on an ENVISION® plate reader (Perkin-Elmer; Waltham, MA). Relative luminescence readings were converted to % viability using untreated cells as controls. Data was fitted with non-linear regression analysis using log (inhibitor) vs. response, variable slope, and 4-parameter fit equation using GraphPad Prism.
Background: In ATP-based viability assays light output follows the ATP content of the culture.

Another series concerns Igrov1 cells. Briefly: In vitro cell killing (cell proliferation assay, Cell Titer-Glo) on FolRα positive Igrov1 cells. It is filed as cell-based. To be noted: for cell killing (in words): Igrov1 cells (FolRα positive).
From the text: as §1

A further series relates to A549 cells. Briefly: In vitro cell killing (cell proliferation assay, Cell Titer-Glo) on FolRα negative A549 cells. The following applies: for cell killing (in words): A549 cells (hFolRα negative). It is filed as cell-based.
From the text: as §1

Read-outs that look alike come from different tables or passages of the source.

Chain of E. coli β-Glucuronidase (P05804 whole entry): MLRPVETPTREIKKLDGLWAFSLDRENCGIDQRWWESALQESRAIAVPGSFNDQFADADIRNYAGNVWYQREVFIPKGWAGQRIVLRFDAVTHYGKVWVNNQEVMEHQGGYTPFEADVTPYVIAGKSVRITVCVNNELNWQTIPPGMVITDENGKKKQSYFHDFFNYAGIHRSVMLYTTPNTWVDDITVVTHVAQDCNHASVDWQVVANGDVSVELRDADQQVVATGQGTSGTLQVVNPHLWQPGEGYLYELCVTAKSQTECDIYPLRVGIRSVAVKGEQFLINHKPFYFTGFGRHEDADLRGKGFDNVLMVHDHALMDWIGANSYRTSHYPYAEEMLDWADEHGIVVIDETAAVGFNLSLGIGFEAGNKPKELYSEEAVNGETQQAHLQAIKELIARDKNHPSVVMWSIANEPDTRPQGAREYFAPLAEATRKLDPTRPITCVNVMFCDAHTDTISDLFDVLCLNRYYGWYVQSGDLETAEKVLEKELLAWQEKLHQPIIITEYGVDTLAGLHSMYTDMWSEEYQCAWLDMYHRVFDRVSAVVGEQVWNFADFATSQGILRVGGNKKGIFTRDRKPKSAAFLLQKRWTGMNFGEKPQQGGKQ

Turning to `CN[C@H](C(=O)N[C@H](C(=O)N(C)[C@H](/C=C(\C)C(=O)O)C(C)C)C(C)(C)C)C(C)(C)c1cccc(NC(=O)OCc2ccc(O[C@@H]3O[C@H](C(=O)O)[C@@H](O)[C@H](O)[C@H]3O)c(CNC(=O)CCNC(=O)[C@H](CNC(=O)CCOCCOCCOCCOCCOCCOCCOCCOCCOCCOCCOCCOC)NC(=O)CCCCC(=O)N3Cc4ccccc4C#Cc4ccccc43)c2)c1` [Compound 108], the “linker-payload after 30 min with β-glucuronidase (in words)” value at E. coli β-Glucuronidase is “most of the (107) and (108) in the reaction mixture had disappeared”.
As for `CC[C@@]1(O)C(=O)OCc2c1cc1n(c2=O)Cc2c-1nc1cc(F)c(C)c3c1c2[C@@H](NC(=O)OCc1ccc(O[C@@H]2O[C@H](C(=O)O)[C@@H](O)[C@H](O)[C@H]2O)c(CNC(=O)CCNC(=O)[C@H](CNC(=O)CCOCCOCCOCCOCCOCCOCCOCCOCCOCCOCCOCCOC)NC(=O)CCCCC(=O)N2Cc4ccccc4C#Cc4ccccc42)c1)CC3` [Compound 107, DBCO β-Glucuronide-PEG12-Exatecan], the “linker-payload after 30 min with β-glucuronidase (in words)” value at E. coli β-Glucuronidase was “most of the (107) and (108) in the reaction mixture had disappeared”.
Consider `CC[C@@]1(O)C(=O)OCc2c1cc1n(c2=O)Cc2c-1nc1cc(F)c(C)c3c1c2[C@@H](N)CC3` [Compound 207, Exatecan], for which the EC50 (in general, the concentration needed to bring the measured effect to its halfway point) is 2.3 nM with MC38-hFolRα cells (72 h); 0.27 nM with Igrov1 cells (Homo sapiens, IGROV-1, 120 h); 3.4 nM in the series on A549 cells (Homo sapiens, A549, 120 h). Also, the Span with MC38-hFolRα cells (MC38-FolRa cells, 72 hours) is 95%; with Igrov1 cells (Igrov1 cells, 120 hours), 91%; with A549 cells (A549 cells, 120 hours), 99%. For the same compound, the “cell killing (in words)” value in the series with MC38-hFolRα cells, in the series with Igrov1 cells and in the series with A549 cells was “good cell killing” throughout. Moreover, the “potency relative to free Hemiasterlin (201)” value in the series on Igrov1 cells (free payloads, statement for the three cell lines tested (Igrov1, MC38-hFolRα, A549)) was “about 3 fold”.
With 3-amino hemiasterlin [Compound 201], the Span in the series on MC38-hFolRα cells (MC38-FolRa cells, 72 hours) is reported as 82%; in the series with Igrov1 cells (Igrov1 cells, 120 hours), 88%; in the series on A549 cells (A549 cells, 120 hours), 83%. Also, the EC50 with MC38-hFolRα cells (MC38-FolRa cells, 72 hours, read-out: EC50) turned out to be 5.5 nM; with Igrov1 cells (Igrov1 cells, 120 hours, read-out: EC50), 0.96 nM; with A549 cells (A549 cells, 120 hours, read-out: EC50) it was 13 nM. The “cell killing (in words)” value in the series with MC38-hFolRα cells, with Igrov1 cells and with A549 cells was “good cell killing” in each case.
